Experiment [1] deals with T1, recombinant full-length WRN protein (1-1432) (Homo sapiens, UniProt Q14191).
T1 construct: recombinant full-length WRN protein (1-1432)
Briefly: WRN unwinding activity, fluorogenic 384-well assay (Example A). Format: biochemical. Particulars: WRN unwinding activity, 4 hr; Table 2; read-out: 4 hr UNW pIC50 (converted). The procedure, abridged:
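Read-out is end-point unwinding of a fluorophore/quencher duplex (ex 525, em 598 nm) after 60 min with 200 μM ATP and 12 nM DNA (2× stocks), EDTA stop. Compound first sat 4 h with 200 pM WRN (2× stock) in pH 8.0 Tris buffer; four-parameter fit gives pIC50.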

Experiment [2] relates to SW48 human colorectal cancer cells (MSI-H cancer cells). Briefly: SW48 cell viability, CellTiter-Glo, 120 hours (Example B). The settings on record: Homo sapiens, SW48, 120 h, read-out: SW48 pCC50, SW48 cell viability, 120 hours incubation (converted); Table 2. (In general: In ATP-based viability assays light output follows the ATP content of the culture.)
Experimental: SW48 human colorectal cancer cells (MSI-H cancer cells) were obtained from the American Type Culture Collection and maintained in growth medium composed of RPMI-1640 supplemented with 10% fetal bovine serum. Cells were maintained in a humidified 5% CO2 incubator at 37° C. Cell dissociation was conducted using TrypLE Select to detach cells from culture flasks. Following dissociation, cells were centrifuged briefly and resuspended in assay medium RPMI-1640+10% fetal bovine serum. Black 384-well assay plates were prepared from source plates of DMSO and compounds dissolved in DMSO prior to cell dispensation. These source plates were prepared in eleven point, 3-fold serial dilutions from 10 mM stocks stored at 4° C. Compounds and DMSO controls were dispensed into assay plates at 150 nanoliters per well from source plates using Labcyte Echo 555 or Echo 655T dispensers with Column 6 and Column 18 containing DMSO only. Cells were then seeded into prepared assay plates in 50 microliters assay medium at 250 cells per well into Columns 1 thru 17 and Columns 19-24. Assay medium without cells was added to column 18 to serve as a surrogate for 100% cell cytotoxicity. Following incubation for 120 hours in a humidified 5% CO2 incubator at 37° C., cellular ATP concentration of each well was measured and used as a surrogate of cell viability. This was performed by adding 50 microliters of CellTiter-Glo reagent to each well followed by a 10-minute incubation at room temperature. Luminescence was measured on a Synergy Neo or Synergy Neo2 multimode plate reader. Compound cytotoxic response (% C) was normalized to the robust means of column 6 (Control 1, 0% Cytotoxicity) and column 18 (Control 2, 100% Cytotoxicity) and normalized % cytotoxicity (% C) calculated. % C=100−100*((Compound−Control 2)/(Control1−Control2)). These normalized data were then used to determine a 50% cytotoxic response (CC50) using 4-parameter logistic curve model 201 in Activity Base XE:
[formula] • where A=minimum asymptote (% cytotoxicity), B=maximum asymptote (% cytotoxicity), C=Log CC50 (pCC50), D=Hill slope, and x=[inhibitor], (M).

T1 sequence (Q14191 whole entry): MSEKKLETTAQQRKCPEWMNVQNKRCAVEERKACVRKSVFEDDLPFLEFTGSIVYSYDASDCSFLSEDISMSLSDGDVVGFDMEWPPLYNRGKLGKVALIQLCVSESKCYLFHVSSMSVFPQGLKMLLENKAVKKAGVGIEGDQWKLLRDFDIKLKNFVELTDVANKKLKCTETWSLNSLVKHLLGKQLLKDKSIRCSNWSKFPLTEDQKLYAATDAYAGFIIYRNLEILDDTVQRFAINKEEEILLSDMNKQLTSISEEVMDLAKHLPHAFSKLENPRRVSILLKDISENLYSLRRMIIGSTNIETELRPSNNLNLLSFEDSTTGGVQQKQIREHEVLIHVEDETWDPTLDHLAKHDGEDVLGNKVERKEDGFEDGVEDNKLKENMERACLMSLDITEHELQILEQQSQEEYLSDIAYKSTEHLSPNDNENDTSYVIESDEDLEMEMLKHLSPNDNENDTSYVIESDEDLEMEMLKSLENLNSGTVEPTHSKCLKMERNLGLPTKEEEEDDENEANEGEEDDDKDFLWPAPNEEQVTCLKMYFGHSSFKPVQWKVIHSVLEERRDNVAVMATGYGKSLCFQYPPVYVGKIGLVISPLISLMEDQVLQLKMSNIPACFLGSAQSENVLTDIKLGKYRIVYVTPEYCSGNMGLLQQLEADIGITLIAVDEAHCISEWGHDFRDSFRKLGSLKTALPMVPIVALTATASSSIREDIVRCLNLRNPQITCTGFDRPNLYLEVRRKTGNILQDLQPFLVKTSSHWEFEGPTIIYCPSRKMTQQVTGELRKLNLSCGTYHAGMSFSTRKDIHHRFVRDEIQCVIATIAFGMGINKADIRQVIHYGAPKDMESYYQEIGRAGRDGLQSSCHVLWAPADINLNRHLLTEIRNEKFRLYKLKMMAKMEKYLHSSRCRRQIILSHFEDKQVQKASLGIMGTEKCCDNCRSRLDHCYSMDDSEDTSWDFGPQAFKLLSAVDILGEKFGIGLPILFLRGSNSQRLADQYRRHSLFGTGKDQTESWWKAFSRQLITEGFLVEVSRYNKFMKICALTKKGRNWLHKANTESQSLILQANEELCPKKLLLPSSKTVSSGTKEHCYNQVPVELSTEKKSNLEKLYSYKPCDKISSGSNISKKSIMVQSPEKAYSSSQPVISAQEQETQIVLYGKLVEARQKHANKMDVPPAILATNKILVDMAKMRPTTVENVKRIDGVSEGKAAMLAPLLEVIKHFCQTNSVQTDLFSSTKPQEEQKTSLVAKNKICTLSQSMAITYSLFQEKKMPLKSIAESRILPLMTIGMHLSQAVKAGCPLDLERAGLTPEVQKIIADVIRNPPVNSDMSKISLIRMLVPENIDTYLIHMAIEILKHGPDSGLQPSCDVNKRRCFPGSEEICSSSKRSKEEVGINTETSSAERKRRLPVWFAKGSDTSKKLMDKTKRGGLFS

Consider `O=C(O)[C@@H]1[C@@H](c2ccc([C@H]3CCC(F)(F)C3)cc2)CCC[C@H]1C(=O)Nc1ccc(C(F)(F)F)cc1F` (racemic) [Example 64, 1:1 Mixture of (1R,2S,6R)-2-(4-((S)-3,3-difluorocyclopentyl)phenyl)-6-((2-fluoro-4-(trifluoromethyl)phenyl)carbamoyl)cyclohexane-1-carboxylic acid AND (1R,2S,6R)-2-(4-((R)-3,3-difluorocyclopentyl)phenyl)-6-((2-fluoro-4-(trifluoromethyl)phenyl)carbamoyl)cyclohexane-1-carboxylic acid], for which the IC50 in experiment [1] was 25.1 nM. In addition, the CC50 in experiment [2] is 15800 nM.

For `Cc1nc2cc(S(=O)(=O)N(C)c3ccc([C@H]4CCC[C@@H](C(=O)Nc5ccc(C(C)C)cc5)[C@H]4C(=O)O)cc3)ccc2n1C` (racemic) [Example 75, rac-(1R,2S,6R)-2-((4-isopropylphenyl)carbamoyl)-6-(4-((N,1,2-trimethyl-1H-benzo[d]imidazole)-5-sulfonamido)phenyl)cyclohexane-1-carboxylic acid], in experiment [1], the IC50 is 6.31 nM. Also, in experiment [2], the CC50 is 5010 nM.

Regarding `Cc1nc2cc(S(=O)(=O)N(C)c3ccc([C@H]4CCC[C@@H](C(=O)Nc5ccc(C(C)C)cc5)[C@@H]4C(=O)O)cc3)ccc2n1C` (racemic) [Example 78, rac-(1R,2R,6S)-2-((4-isopropylphenyl)carbamoyl)-6-(4-((N,1,2-trimethyl-1H-benzo[d]imidazole)-5-sulfonamido)phenyl)cyclohexane-1-carboxylic acid], the IC50 in experiment [1] is 2 nM. Besides, the CC50 in experiment [2] was 1000 nM.

As for `Cc1nc2cc(S(=O)(=O)N(C)c3ccc([C@H]4CCC[C@@H](C(=O)Nc5ccc(C(F)(F)F)cc5F)[C@@H]4C(=O)O)cc3)ccc2n1C` (racemic) [Example 81, rac-(1R,2R,6S)-2-((2-fluoro-4-(trifluoromethyl)phenyl)carbamoyl)-6-(4-((N,1,2-trimethyl-1H-benzo[d]imidazole)-5-sulfonamido)phenyl)cyclohexane-1-carboxylic acid], the IC50 in experiment [1] is 7.94 nM. Moreover, the CC50 in experiment [2] is 1260 nM.

As to `C=C(F)C(=O)Nc1ccc([C@H]2CCC[C@@H](C(=O)Nc3ccc(C(F)(F)F)cc3F)[C@@H]2C(=O)O)cc1` (racemic) [Example 227, rac-(1R,2R,6S)-2-((2-fluoro-4-(trifluoromethyl)phenyl)carbamoyl)-6-(4-(2-fluoroacrylamido)phenyl)cyclohexane-1-carboxylic acid], the IC50 in experiment [1] is 79.4 nM. The CC50 in experiment [2] was 15800 nM.

`Cc1nc2cc(S(=O)(=O)N(C)c3ccc([C@H]4COC[C@@H](C(=O)Nc5ccc(C(F)(F)F)cc5F)[C@@H]4C(=O)O)cc3)ccc2n1C` (racemic) [Example 232, rac-(3R,4S,5R)-3-((2-fluoro-4-(trifluoromethyl)phenyl)carbamoyl)-5-(4-((N,1,2-trimethyl-1H-benzo[d]imidazole)-5-sulfonamido)phenyl)tetrahydro-2H-pyran-4-carboxylic acid]: the IC50 in experiment [1] is 1.58 nM. For the same compound, in experiment [2], the CC50 is 1260 nM.

Take `Cc1nc2cc(S(=O)(=O)N(C)c3ccc([C@H]4C[C@@](C)(O)C[C@@H](C(=O)Nc5ccc(C(F)(F)F)cc5F)[C@@H]4C(=O)O)cc3)ccc2n1C` (racemic) [Example 356, rac-(1R,2R,4R,6S)-2-((2-fluoro-4-(trifluoromethyl)phenyl)carbamoyl)-4-hydroxy-4-methyl-6-(4-((N,1,2-trimethyl-1H-benzo[d]imidazole)-5-sulfonamido)phenyl)cyclohexane-1-carboxylic acid]: in experiment [1], the IC50 is 12.6 nM. For the same compound, the CC50 in experiment [2] was 1260 nM.

In the case of `Cc1nc2cc(S(=O)(=O)N(C)c3ccc([C@H]4C[C@](C)(O)C[C@@H](C(=O)Nc5ccc(C(F)(F)F)cc5F)[C@@H]4C(=O)O)cc3)ccc2n1C` (racemic) [Example 357, rac-(1R,2R,4S,6S)-2-((2-fluoro-4-(trifluoromethyl)phenyl)carbamoyl)-4-hydroxy-4-methyl-6-(4-((N,1,2-trimethyl-1H-benzo[d]imidazole)-5-sulfonamido)phenyl)cyclohexane-1-carboxylic acid], the IC50 in experiment [1] is 10 nM. The CC50 in experiment [2] is 1000 nM.

As for `CCO[C@@H]1CC[C@@H](C(=O)Nc2ccc(C(F)(F)F)cc2F)[C@H](C(=O)O)[C@H]1c1ccc(N(C)S(=O)(=O)c2ccc3c(c2)nc(C)n3C)cc1` (racemic) [Example 371, rac-(1R,2S,3R,6R)-3-ethoxy-6-((2-fluoro-4-(trifluoromethyl)phenyl)carbamoyl)-2-(4-((N,1,2-trimethyl-1H-benzo[d]imidazole)-5-sulfonamido)phenyl)cyclohexane-1-carboxylic acid], in experiment [1], the IC50 is 6.31 nM. Besides, the CC50 in experiment [2] is 1000 nM.

On to `[2H]C([2H])([2H])O[C@@H]1C[C@H](C(=O)Nc2ccc(C(F)(F)F)cc2F)[C@@H](C(=O)O)[C@H](c2ccc(N(C)S(=O)(=O)c3ccc4c(c3)nc(C)n4C)cc2)C1` (relative stereo) [Example 149, rel-(1R,2R,4R,6S)-2-((2-fluoro-4-(trifluoromethyl)phenyl)carbamoyl)-4-methoxy-6-(4-((N,1,2-trimethyl-1H-benzo[d]imidazole)-5-sulfonamido)phenyl)cyclohexane-1-carboxylic acid], for which, in experiment [1], the IC50 is 1.58 nM. Besides, in experiment [2], the CC50 was 200 nM.

With `CCO[C@@H]1C[C@H](C(=O)Nc2ccc(C(F)(F)F)cn2)[C@@H](C(=O)O)[C@H](c2ccc(N(C)S(=O)(=O)c3ccc4c(c3)nc(C)n4C)cc2)C1` (relative stereo) [Example 156, rel-(1R,2R,4R,6S)-4-ethoxy-2-((5-(trifluoromethyl)pyridin-2-yl)carbamoyl)-6-(4-((N,1,2-trimethyl-1H-benzo[d]imidazole)-5-sulfonamido)phenyl)cyclohexane-1-carboxylic acid], in experiment [1], the IC50 was 126 nM. Besides, the CC50 in experiment [2] was 25100 nM.

In the case of `Cc1nc2cc(S(=O)(=O)N(C)c3ccc([C@H]4CCC[C@@H](C(=O)N[C@@H]5CCC[C@@H](C(F)(F)F)C5)[C@@H]4C(=O)O)cc3)ccc2n1C` [Example 192, (1R,2R,6S)-2-(((1R,3R)-3-(trifluoromethyl)cyclohexyl)carbamoyl)-6-(4-((N,1,2-trimethyl-1H-benzo[d]imidazole)-5-sulfonamido)phenyl)cyclohexane-1-carboxylic acid], in experiment [1], the IC50 is 39800 nM.

Turning to `Cc1nc2cc(S(=O)(=O)N(C)c3ccc([C@H]4CCC[C@@H](C(=O)N[C@]56CC[C@H](CC5)C6)[C@@H]4C(=O)O)cc3)ccc2n1C` [Example 193, (1R,2R,6S)-2-(((1r,4R)-bicyclo[2.2.1]heptan-1-yl)carbamoyl)-6-(4-((N,1,2-trimethyl-1H-benzo[d]imidazole)-5-sulfonamido)phenyl)cyclohexane-1-carboxylic acid], in experiment [1], the IC50 was 20000 nM.

For the compound `CCC[C@H]1CC[C@@H](NC(=O)[C@@H]2CCC[C@H](c3ccc(N(C)S(=O)(=O)c4ccc5c(c4)nc(C)n5C)cc3)[C@H]2C(=O)O)CC1` [Example 195, (1R,2R,6S)-2-(((1r,4R)-4-propylcyclohexyl)carbamoyl)-6-(4-((N,1,2-trimethyl-1H-benzo[d]imidazole)-5-sulfonamido)phenyl)cyclohexane-1-carboxylic acid], the IC50 in experiment [1] is 20 nM.

As for `Cc1nc2cc(S(=O)(=O)N(C)c3ccc([C@H]4CCC[C@@H](C(=O)N[C@H]5CCCC[C@@H]5C)[C@@H]4C(=O)O)cc3)ccc2n1C` [Example 197, (1R,2R,6S)-2-(((1S,2S)-2-methylcyclohexyl)carbamoyl)-6-(4-((N,1,2-trimethyl-1H-benzo[d]imidazole)-5-sulfonamido)phenyl)cyclohexane-1-carboxylic acid], the IC50 in experiment [1] is 2510 nM.

As to `Cc1nc2cc(S(=O)(=O)N(C)c3ccc([C@H]4CCC[C@@H](C(=O)NC56CC(C7CCC7)(C5)C6)[C@@H]4C(=O)O)cc3)ccc2n1C` [Example 198, (1R,2R,6S)-2-((3-cyclobutylbicyclo[1.1.1]pentan-1-yl)carbamoyl)-6-(4-((N,1,2-trimethyl-1H-benzo[d]imidazole)-5-sulfonamido)phenyl)cyclohexane-1-carboxylic acid], the IC50 in experiment [1] was 5.01 nM.

Take `Cc1nc2cc(S(=O)(=O)N(C)c3ccc([C@H]4CCC[C@@H](COc5ccc(C(F)(F)F)cc5)[C@@H]4C(=O)O)cc3)ccc2n1C` [Example 205, (1R,2R,6S)-2-((4-(trifluoromethyl)phenoxy)methyl)-6-(4-((N,1,2-trimethyl-1H-benzo[d]imidazole)-5-sulfonamido)phenyl)cyclohexane-1-carboxylic acid]: the IC50 in experiment [1] was 25.1 nM.

Take `C#CC(=O)N(C)c1ccc([C@H]2CCC[C@@H](C(=O)Nc3ccc(C(F)(F)F)cc3F)[C@@H]2C(=O)O)cc1` [Example 229, (1R,2R,6S)-2-((2-fluoro-4-(trifluoromethyl)phenyl)carbamoyl)-6-(4-(N-methylpropiolamido)phenyl)cyclohexane-1-carboxylic acid]: the IC50 in experiment [1] is 316 nM.

Consider `CN(c1ccc([C@H]2CCC[C@@H](C(=O)Nc3ccc(C(F)(F)F)cc3F)[C@@H]2C(=O)O)cc1)S(=O)(=O)c1ccc(C=O)c(O)c1` [Example 276, (1R,2R,6S)-2-((2-fluoro-4-(trifluoromethyl)phenyl)carbamoyl)-6-(4-((4-formyl-3-hydroxy-N-methylphenyl)sulfonamido)phenyl)cyclohexane-1-carboxylic acid], for which, in experiment [1], the IC50 was 6.31 nM.

In the case of `Cc1nc2cc(S(=O)(=O)N(C)c3ccc([C@@H]4C[C@H](N5CCC(F)(F)C5)C[C@H](C(=O)Nc5ccc(C(F)(F)F)cc5F)[C@H]4C(=O)O)cc3)ccc2n1C` [Example 305, (1S,2S,4S,6R)-4-(3,3-difluoropyrrolidin-1-yl)-2-((2-fluoro-4-(trifluoromethyl)phenyl)carbamoyl)-6-(4-((N,1,2-trimethyl-1H-benzo[d]imidazole)-5-sulfonamido)phenyl)cyclohexane-1-carboxylic acid], the IC50 in experiment [1] was 316 nM.
